Assay results from patent US4997843A, “2,4-disubstituted derivatives of tetrahydrofuran useful for the treatment of PAF mediated illnesses” (J Uriach & Cia S.A., priority 1987, dated 1991).
Read-outs that look alike come from different tables or passages of the source.

Legend:
[1] = test system: hypotension induced by PAF; test: Test 2: inhibition of the hypotensive effect induced by PAF in normotense rats; type: in vivo, male Sprague Dawley rats; conditions: anesthetized rats, compound via femoral vein 3 min before PAF (0.5 mg/Kg, i.v.); for ED50: Rattus norvegicus, iv, read-out: IC50 (inhibition of the hypotension induced by PAF)
Protocol: TEST 2--INHIBITION OF THE HYPOTENSIVE EFFECT INDUCED BY PAF IN NORMOTENSE RATS
Male Sprague Dawley rats, of 180-220 g of weight, anesthetized with sodium pentobarbital (50 mg/Kg, i.p. 1 mL/100 g) have been used. In order to measure the average arterial pressure a polyethylene catheter was introduced into the carotid artery. The arterial pressure was recorded with the help of a transducer connected with a R611 Beckman polygraph. The tested compounds were administrated through the femoral vein 3 min. before the injection of PAF (0.5 mg/Kg, i.v.).

[2] = test system: platelet aggregation induced by PAF; test: Test 1: inhibition of platelet aggregation induced by PAF in vitro (rabbit platelet rich plasma, Born nephelometric technique); type: cell-based, male New Zealand albino rabbits; conditions: PAF C18 16 nM final, read-out: IC50 (concentration of the drug needed to inhibit the platelet aggregation in a 50%)
Protocol: TEST 1: INHIBITION OF PLATELET AGGREGATION INDUCED BY PAF
The platelet rich plasma (PRP) is prepared by blood centrifugation at 250 xg for 10 min. at 4° C. and it is diluted with platelet poor plasma (PPP) obtained by additional centrifugation at 300 xg for 10 min. The amount of platelets is adjusted to […].

[3] = Oryctolagus cuniculus, Platelet

CCCCCCCCCCCCCCCCOCC1CC(COCCCCCC[n+]2ccsc2)CO1 (mixture of isomers) [Compound 63, (35)-cis, trans-3-[6-[(2-hexadecyloxymethyltetrahydrofuran-4-yl)methoxy]hexyl]thiazolium 4-methylbenzenesulfonate]
ED50 [1]: 2.5 mg/kg
IC50 [2, 3]: 1.4 µM

CCCCCCCCCCCCOCC1COC(COCCCCCCC[n+]2ccsc2)C1 (racemic) [Compound 1, (±)-cis, trans-3-[7-[(4-dodecyloxymethyltetrahydrofuran-2-yl)methoxy]heptyl]thiazolium 4-methylbenzenesulphonate]
ED50 [1]: 3.7 mg/kg
IC50 [2, 3]: 2.5 µM

CCCCCCCCCCCCCCOCC1COC(COCCCCCCC[n+]2ccsc2)C1 (racemic) [Compound 2, (±)-cis, trans-3-[7-(4-tetradecyloxymethyltetrahydrofuran-2-yl)methoxy]heptyl]thiazolium 4-methylbenzenesulfonate]
ED50 [1]: 1.4 mg/kg
IC50 [2, 3]: 0.9 µM

CCCCCCCCCCCCCCOCC1COC(COCCCCCC[n+]2ccsc2)C1 (racemic) [Compound 3, (±)-cis, trans-3-[6-[(4-tetradecyloxymethyltetrahydrofuran-2-yl)methoxy]hexyl]thiazolium 4-methylbenzenesulfonate]
ED50 [1]: 3 mg/kg
IC50 [2, 3]: 0.7 µM

CCCCCCCCCCCCCCCCOCC1COC(COCCCCCC[n+]2ccsc2)C1 (racemic) [Compound 4, (±)-cis, trans-3-[6-[(4-hexadecyloxymethyltetrahydrofuran-2-yl)methoxy]hexyl]thiazolium 4-methylbenzenesulfonate]
ED50 [1]: 1.2 mg/kg
IC50 [2, 3]: 1.4 µM

CCCCCCCCCCCCCCCCOCC1COC(COC(=O)CCCCC[n+]2ccsc2)C1 (racemic) [Compound 5, (±)-cis, trans-3-[6-[(4-hexadecyloxymethyltetrahydrofuran-2-yl)methoxy]-6-oxohexyl]thiazolium 4-methylbenzenesulfonate]
ED50 [1]: 1.6 mg/kg
IC50 [2, 3]: 4.8 µM

CCCCCCCCCCCCCCCCCCOCC1COC(COC(=O)CCCCC[n+]2ccsc2)C1 (racemic) [Compound 6, (±)-cis, trans-3-[6-[(4-octadecyloxymethyltetrahydrofuran-2-yl)methoxy]-6-oxohexyl]thiazolium 4-methylbenzenesulfonate]
ED50 [1]: 1.9 mg/kg
IC50 [2, 3]: 8.6 µM

CCCCCCCCCCCCCCCNC(=O)OCC1COC(COC(=O)CCCCC[n+]2ccsc2)C1 (racemic) [Compound 7, (±)-cis, trans-3-[6-oxo-6-[(4-pentadecylaminocarbonyloxymethyltetrahydrofuran-2-yl)methoxy]hexyl]thiazolium 4-methylbenzenesulfonate]
ED50 [1]: 3.6 mg/kg
IC50 [2, 3]: 5.9 µM

CCCCCCCCCCCCCCCCOCC1COC(COC(=O)NCc2cccc[n+]2CC)C1 (racemic) [Compound 10, (±)-cis, trans-N-ethyl-2-[[[(4-hexadecyloxymethyltetrahydrofuran-2-yl)methoxy]carbonyl]amino]methylpyridinium iodide]
ED50 [1]: 6.6 mg/kg
IC50 [2, 3]: 3.8 µM

CCCCCCCCCCCCCCCCOCC1COC(COC(=O)N(Cc2cccc[n+]2C)C(C)=O)C1 (racemic) [Compound 12, (±)-cis, trans-N-methyl-2-[N-acetyl-[[[(4-hexadecyloxymethyltetrahydrofuran-2-yl)methoxy]carbonyl]amino]methyl]pyridinium iodide]
ED50 [1]: 0.23 mg/kg
IC50 [2, 3]: 0.1 µM

CCCCCCCCCCCCCCCCOCC1COC(COC(=O)N(Cc2cccc[n+]2CC)C(C)=O)C1 (racemic) [Compound 13, (±)-cis, trans-N-ethyl-2-[N-acetyl-[[[(4-hexadecyloxymethyltetrahydrofuran-2-yl)methoxy]carbonyl]amino]methyl]pyridinium iodide]
ED50 [1]: 0.035 mg/kg
IC50 [2]: 0.022 µM

CCCCCCCCCCCCCCCCOCC1COC(COC(=O)N(Cc2cccc[n+]2CC)C(=O)OCC)C1 (racemic) [Compound 15, (±)-cis, trans-N-ethyl-[N-ethoxycarbonyl-[[[(4-hexadecyloxymethyltetrahydrofuran-2-yl)methoxy]carbonyl]amino]methyl]pyridinium iodide]
ED50 [1]: 0.035 mg/kg
IC50 [2, 3]: 0.048 µM

CCCCCCCCCCCCCCCCCCOCC1COC(COC(=O)N(Cc2cccc[n+]2C)C(C)=O)C1 (racemic) [Compound 19, (±)-cis, trans-N-methyl-2-[N-acetyl-[[[(4-octadecyloxymethyltetrahydrofuran-2-yl)methoxy]carbonyl]amino]methyl]pyridinium iodide]
ED50 [1]: 0.14 mg/kg
IC50 [2, 3]: 0.09 µM

CCCCCCCCCCCCCCCCCCOCC1COC(COC(=O)N(Cc2cccc[n+]2CC)C(C)=O)C1 (racemic) [Compound 20, (±)-cis, trans-N-ethyl-2-[N-acetyl-[[[(4-octadecyloxymethyltetrahydrofuran-2yl)methoxy]carbonyl]amino]methyl]pyridinium iodide]
ED50 [1]: 0.035 mg/kg
IC50 [2, 3]: 0.034 µM

CCCCCCCCCCCCCCOC[C@H]1CO[C@@H](COC(=O)N(Cc2cccc[n+]2CC)C(C)=O)C1.[Cl-] (racemic) [Compound 25, (±)-cis, trans-N-ethyl-2-[N-acetyl-[[[(4-tetradecyloxymethyltetrahydrofuran-2-yl)methoxy]carbonyl]amino]-methyl]pyridinium chloride]
IC50 (inhibition of the hypotension induced by PAF) [1]: 0.081 mg/Kg, i.v.
IC50 [2]: 0.095 µM

CCCCCCCCCCCCCCCCCCOCC1CC(COCCCCC[n+]2ccsc2)CO1 (racemic) [Compound 62, (±)-cis, trans-3-[5-[(2-octadecyloxymethyltetrahydrofuran-4-yl)methoxy]pentyl]thiazolium 4-methylbenzenesulfonate]
IC50 [2, 3]: 2.1 µM

CCCCCCCCCCCCCCC1COC(COCCCCCC[N+](C)(C)C)C1 (racemic) [Compound 71, (±)-cis, trans-6-[6-(4-tetradecyltetrahydrofuran-2-yl)methoxy]N,N,N-trimethylhexaminium 4-methylbenzenesulfonate]
IC50 [2, 3]: 8.2 µM

CCCCCCCCCCCCCCC1COC(COCCCCCC[n+]2ccn(C)c2)C1 (racemic) [Compound 73, (±)-cis, trans-3-methyl-1-[6-[(4-tetradecyltetrahydrofuran-2-yl)methoxy]hexyl]imidazolium 4-methylbenzenesulfonate]
IC50 [2, 3]: 15 µM

CCCCCCCCCCCCCCC1COC(COCCCCCC[n+]2ccccc2)C1 (racemic) [Compound 74, (±)-cis, trans-1-[6-[(4-tetradecyltetrahydrofuran-2-yl)methoxy]hexyl]pyridinium methanesulfonate]
IC50 [2, 3]: 6.3 µM

CCCCCCCCCCCCCCC1COC(COC(=O)CCCCC[n+]2ccsc2)C1 (racemic) [Compound 75, (±)-cis, trans-3-[6-[(4-tetradecyltetrahydrofuran-2-yl)methoxy]-6-oxohexyl]thiazolium 4-methylbenzenesulfonate]
IC50 [2, 3]: 50 µM

CCCCCCCCCCCCCCC1COC(COC(=O)CCCCC[N+](C)(C)C)C1 (racemic) [Compound 76]
IC50 [2, 3]: 180 µM

CCCCCCCCCCCCCCC1COC(COC(=O)CCCCC[n+]2ccccc2)C1 (racemic) [Compound 77, (±)-cis, trans-1-[6-[(4-tetradecyltetrahydrofuran-2-yl)methoxy]-6-oxohexyl]pyridinium 4-methylbenzenesulfonate]
IC50 [2, 3]: 120 µM

CCCCCCCCCCCCCCC1COC(COC(=O)CCCCC[n+]2ccn(C)c2)C1 (racemic) [Compound 78, (±)-cis, trans-3-methyl-1-[6-[(4-tetradecyltetrahydrofuran-2-yl)methoxy]-6-oxohexyl]imidazolium 4-methylbenzenesulfonate]
IC50 [2, 3]: 210 µM

CCCCCCCCCCCCCCC1COC(COCCCC[n+]2ccsc2)C1 (racemic) [Compound 79, (±)-cis, trans-3-[4-[(4-tetradecyltetrahydrofuran-2-yl)methoxy]butyl]thiazolium 4-methylbenzenesulfonate]
IC50 [2, 3]: 39 µM

CCCCCCCCCCCCCCC1COC(COCCCC[n+]2ccccc2C)C1 (racemic) [Compound 80, (±)-cis, trans-2-methyl-1-[4-[(4-tetradecyltetrahydrofuran-2-yl)methoxy]butyl]pyridinium 4-methylbenzenesulfonate]
IC50 [2, 3]: 75 µM

CCCCCCCCCCCCCCC1COC(COCCCC[N+]2(C)CCOCC2)C1 (racemic) [Compound 81, (±)-cis, trans-4-methyl-4-[4-[(4-tetradecyltetrahydrofuran-2-yl)methoxy]butyl]morpholinium 4-methylbenzenesulfonate]
IC50 [2, 3]: 51 µM

CCCCCCCCCCCCCC[C@@H]1CO[C@@H](COCCCCCC[n+]2ccsc2)C1 (racemic) [Compound 84, (±)-trans-3-[6-[(4-tetradecyltetrahydrofuran-2-yl)methoxy]hexyl]thiazolium 4-methylbenzenesulfonate]
IC50 ([2]; Oryctolagus cuniculus): 2.6 µM

CCCCCCCCCCCCCC[C@@H]1CO[C@H](COCCCCCC[n+]2ccsc2)C1 (relative stereo) [Compound 83, (±)-cis-3-[6-[(4-tetradecyltetrahydrofuran-2-yl)methoxy]hexyl]thiazolium4-methylbenzenesulfonate]
IC50 [2, 3]: 2.6 µM
